Experimental data reported in ChEMBL document CHEMBL4304783, “Discovery of a Novel Selective Dual Peroxisome Proliferator-Activated Receptor α/δ Agonist for the Treatment of Primary Biliary Cirrhosis” (ACS Med Chem Lett, 2019).
Calls of active or inactive are those of the source. The calls are words filed in the database; no cut-off is given here.

Key:
[1] = biological target: T1, Peroxisome proliferator-activated receptor alpha (Homo sapiens, UniProt Q07869); experiment: Agonist activity at PPARalpha (unknown origin) incubated for 3 to 16 hrs by pathhunter nuclear hormone receptor assay
T1 sequence (Q07869 whole entry): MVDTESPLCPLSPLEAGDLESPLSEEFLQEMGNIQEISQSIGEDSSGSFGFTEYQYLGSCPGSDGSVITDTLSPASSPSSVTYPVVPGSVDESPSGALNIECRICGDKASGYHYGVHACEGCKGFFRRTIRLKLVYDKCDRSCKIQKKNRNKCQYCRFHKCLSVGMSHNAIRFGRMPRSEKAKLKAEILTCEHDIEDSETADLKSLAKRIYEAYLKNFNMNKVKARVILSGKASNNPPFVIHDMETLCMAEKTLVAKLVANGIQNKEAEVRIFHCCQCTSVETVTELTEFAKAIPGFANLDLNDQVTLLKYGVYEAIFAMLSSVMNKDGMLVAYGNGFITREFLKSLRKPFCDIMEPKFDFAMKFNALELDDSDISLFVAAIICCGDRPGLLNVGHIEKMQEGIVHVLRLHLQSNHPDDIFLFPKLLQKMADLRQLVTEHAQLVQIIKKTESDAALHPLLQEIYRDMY

[2] = biological target: T2, Peroxisome proliferator-activated receptor delta (Homo sapiens, UniProt Q03181); experiment: Agonist activity at PPARbeta (unknown origin) incubated for 3 to 16 hrs by pathhunter nuclear hormone receptor assay
T2 sequence (Q03181 whole entry): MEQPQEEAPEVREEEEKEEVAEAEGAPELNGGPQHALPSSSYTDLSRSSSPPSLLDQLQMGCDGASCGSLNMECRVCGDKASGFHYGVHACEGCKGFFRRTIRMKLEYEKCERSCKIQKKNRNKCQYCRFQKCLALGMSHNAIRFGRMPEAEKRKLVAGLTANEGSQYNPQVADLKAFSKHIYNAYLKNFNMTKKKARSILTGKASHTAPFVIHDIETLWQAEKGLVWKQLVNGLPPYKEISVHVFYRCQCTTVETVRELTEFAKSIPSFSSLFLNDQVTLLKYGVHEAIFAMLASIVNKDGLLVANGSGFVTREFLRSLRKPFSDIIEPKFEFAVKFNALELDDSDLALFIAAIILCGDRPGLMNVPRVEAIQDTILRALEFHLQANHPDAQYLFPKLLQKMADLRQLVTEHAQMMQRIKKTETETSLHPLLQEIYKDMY

[3] = biological target: T3, Peroxisome proliferator-activated receptor gamma (Homo sapiens, UniProt P37231); experiment: Agonist activity at PPARgamma (unknown origin) incubated for 3 to 16 hrs by pathhunter nuclear hormone receptor assay
T3 sequence (P37231 whole entry): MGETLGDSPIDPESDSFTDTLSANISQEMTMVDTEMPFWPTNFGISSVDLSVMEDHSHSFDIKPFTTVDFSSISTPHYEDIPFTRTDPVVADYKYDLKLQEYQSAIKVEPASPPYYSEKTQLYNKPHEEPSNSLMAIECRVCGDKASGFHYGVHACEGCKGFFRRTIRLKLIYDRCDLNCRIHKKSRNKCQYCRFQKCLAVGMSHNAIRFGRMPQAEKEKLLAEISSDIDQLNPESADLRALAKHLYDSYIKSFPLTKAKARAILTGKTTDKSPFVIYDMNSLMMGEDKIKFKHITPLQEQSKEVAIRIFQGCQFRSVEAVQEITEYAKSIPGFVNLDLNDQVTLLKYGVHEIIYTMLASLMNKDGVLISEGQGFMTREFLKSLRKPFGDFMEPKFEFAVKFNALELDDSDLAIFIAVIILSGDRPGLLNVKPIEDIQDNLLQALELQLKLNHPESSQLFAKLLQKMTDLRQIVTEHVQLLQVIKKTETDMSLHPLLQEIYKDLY

[4] = biological target: T4, Peroxisome proliferator-activated receptor alpha (Homo sapiens) (UniProt Q07869); experiment: Agonist activity at PPARalpha (unknown origin) incubated for 3 to 16 hrs by pathhunter nuclear hormone receptor assay relative to GW7647; set-up: concentration or dose not given beside the values
T4 sequence (whole entry): T1 sequence (Q07869 whole entry)

[5] = biological target: T5, Peroxisome proliferator-activated receptor delta (Homo sapiens) (UniProt Q03181); experiment: Agonist activity at PPARbeta (unknown origin) incubated for 3 to 16 hrs by pathhunter nuclear hormone receptor assay relative to L-165,041
T5 sequence (whole entry): T2 sequence (Q03181 whole entry)

[6] = biological target: T6, Peroxisome proliferator-activated receptor gamma (Homo sapiens) (UniProt P37231); experiment: Agonist activity at PPARgamma (unknown origin) incubated for 3 to 16 hrs by pathhunter nuclear hormone receptor assay relative to Troglitazone
T6 sequence (whole entry): T3 sequence (P37231 whole entry)

[7] = species on record: Homo sapiens; experiment: Selectivity index, ratio of EC50 of PPARgamma (unknown origin) to EC50 of PPARalpha (unknown origin)
[8] = biological target: PPAR delta/gamma (Homo sapiens) (UniProt P37231+Q03181); experiment: Selectivity index, ratio of EC50 of PPARgamma (unknown origin) to EC50 of PPARdelta (unknown origin); type: protein assay
[9] = biological target: T4, Peroxisome proliferator-activated receptor alpha (Homo sapiens); experiment: Potency index, ratio of EC50 of GFT505 to ratio of EC50 of compound for agonist activity at PPARalpha (unknown origin) incubated for 3 to 16 hrs by pathhunter nuclear hormone receptor assay
[10] = system: Rattus norvegicus; experiment: Hepatoprotective activity in Sprague-Dawley rat assessed as reduction in ANIT-stimulated total bilirubin level at 20 mg/kg, ig administered for 8 days by biochemical analysis; type: functional, organism-based
[11] = system: Rattus norvegicus; experiment: Hepatoprotective activity in Sprague-Dawley rat assessed as reduction in ANIT-stimulated inflammatory score at 20 mg/kg, ig administered for 8 days by hematoxylin and eosin staining based mopho-metric analysis; type: functional, organism-based
[12] = system: Rattus norvegicus; experiment: Hepatoprotective activity in Sprague-Dawley rat assessed as reduction in ANIT-stimulated fibrosis area at 20 mg/kg, ig administered for 8 days by hematoxylin and eosin staining based mopho-metric analysis; type: functional, organism-based
[13] = system: Rattus norvegicus; experiment: Hepatoprotective activity in Sprague-Dawley rat assessed as reduction in ANIT-stimulated total bilirubin level at 30 mg/kg, ig administered for 8 days by biochemical analysis; type: functional, organism-based
[14] = system: Rattus norvegicus; experiment: Hepatoprotective activity in Sprague-Dawley rat assessed as reduction in ANIT-stimulated inflammatory score at 30 mg/kg, ig administered for 8 days by hematoxylin and eosin staining based mopho-metric analysis; type: functional, organism-based
[15] = system: Rattus norvegicus; experiment: Hepatoprotective activity in Sprague-Dawley rat assessed as reduction in ANIT-stimulated fibrosis area at 30 mg/kg, ig administered for 8 days by hematoxylin and eosin staining based mopho-metric analysis; type: functional, organism-based

Cc1cc(CCc2cc(-c3ccc(Br)cc3)on2)cc(C)c1OC(C)(C)C(=O)O
EC50 [1]: 27 nM | EC50 [2]: 5 nM | EC50 [3]: 457 nM | Activity [4]: 134% | Activity [5]: 73% | Activity [6]: 78% | Ratio EC50 [7]: 17 | Ratio EC50 [8]: 91 | Ratio EC50 [9]: 8 to 28

Cc1cc(Cc2noc3c2CCOc2cc(Br)ccc2-3)cc(C)c1OC(C)(C)C(=O)O
EC50 [1]: 8970 nM | Activity [4]: 50%

CC[C@H]1[C@@H](O)[C@@H]2[C@H](CC[C@]3(C)[C@@H]([C@H](C)CCC(=O)O)CC[C@@H]23)[C@@]2(C)CC[C@@H](O)C[C@@H]12
Activity [10]: Active | Activity [11]: inactive | Activity [12]: inactive

CCCc1c(OCCCOc2ccc(OCC(=O)O)cc2)ccc(C(C)=O)c1O
EC50 [2]: 61 nM

Cc1cc(-c2cc(-c3ccc(Br)cc3)on2)cc(C)c1OC(C)(C)C(=O)O
EC50 [1]: > 10000 nM | Activity [4]: 5%

CSc1ccc(C(=O)/C=C/c2cc(C)c(OC(C)(C)C(=O)O)c(C)c2)cc1 [ELAFIBRANOR]
EC50 [1]: 225 nM | Activity [4]: 117% | Activity [5]: 72% | Activity [6]: 93% | Activity [13]: Active | Activity [14]: inactive | Activity [15]: inactive

Cc1cc(Cc2onc3c2CCOc2cc(Br)ccc2-3)cc(C)c1OC(C)(C)C(=O)O
EC50 [1]: 3420 nM | Activity [4]: 85%

Cc1cc(Cc2cc(-c3ccccc3)on2)cc(C)c1OC(C)(C)C(=O)O
EC50 [1]: 385 nM | Activity [4]: 85%

Cc1cc(Cc2cnoc2-c2ccc(Br)cc2)cc(C)c1OC(C)(C)C(=O)O
EC50 [1]: 2820 nM | Activity [4]: 78%
